Measurements from patent US20230263808A1 (UNIVERSITY OF FLORIDA RESEARCH FOUNDATION, INCORPORATED, priority 2020, published 2023).
Entries after “also recorded” stand apart in the source; their conditions may differ. Where two headings read alike, the source gives them in different places.

How the values were obtained:
[1] = target: T1, glucocorticoid receptor (GR) (Homo sapiens, UniProt P04150); test: GR-driven (MMTV) luciferase reporter assay, agonist and antagonist mode; assay type: cell-based
T1 construct: expressed in transfected cells; host or cells: 293T
T1 sequence (P04150 1-777): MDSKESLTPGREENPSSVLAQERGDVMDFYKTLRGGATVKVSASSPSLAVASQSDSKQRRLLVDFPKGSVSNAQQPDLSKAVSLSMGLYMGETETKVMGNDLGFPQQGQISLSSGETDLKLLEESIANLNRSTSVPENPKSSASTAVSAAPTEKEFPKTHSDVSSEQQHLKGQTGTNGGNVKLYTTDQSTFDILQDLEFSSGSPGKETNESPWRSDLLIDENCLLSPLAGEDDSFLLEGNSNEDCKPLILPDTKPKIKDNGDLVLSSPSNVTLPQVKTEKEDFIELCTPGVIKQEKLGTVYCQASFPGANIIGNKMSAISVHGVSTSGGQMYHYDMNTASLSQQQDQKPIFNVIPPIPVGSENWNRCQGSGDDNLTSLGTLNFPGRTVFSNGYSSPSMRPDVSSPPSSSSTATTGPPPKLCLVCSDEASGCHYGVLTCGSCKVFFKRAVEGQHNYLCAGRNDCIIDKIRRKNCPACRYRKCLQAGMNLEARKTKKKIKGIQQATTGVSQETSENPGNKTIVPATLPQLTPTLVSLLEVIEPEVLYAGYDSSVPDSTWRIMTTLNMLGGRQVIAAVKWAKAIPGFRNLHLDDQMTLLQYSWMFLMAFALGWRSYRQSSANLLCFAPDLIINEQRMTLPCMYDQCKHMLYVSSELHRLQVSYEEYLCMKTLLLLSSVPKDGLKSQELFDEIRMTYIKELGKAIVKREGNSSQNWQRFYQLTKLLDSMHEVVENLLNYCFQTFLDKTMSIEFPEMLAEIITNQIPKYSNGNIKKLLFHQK
Method: For native gene expression, C2C12 myotubes were treated compounds for 24 h. For MMTV-Luc assay, steroid-deprived 293T cells were co-transfected with a GR expression plasmid and an MMTV-driven luciferase reporter plasmid. The next day, cells were treated with compounds for 24 hrs. Each point represents the average of triplicate biological measurements for a separate compound. B) AR Luc assay development. Steroid-deprived 293T cells were transfected with AR expression plasmid and an ARR3-tk-driven luciferase reporter. The next day cells were treated with increasing doses of the indicated compounds. Data shown are mean+SD of triplicate measurements. C) AR-Luc assay identified 5 GCs with some AR activity.
A) The effects of all tested compounds on IL-1β-induced IL-6 production (x-axes) versus GR interaction with the indicated peptides. B-C) The effects of all tested compounds on the indicated GC-regulated phenotypes (x-axes) versus GR interaction with the CHD9_1023 and CENPR_1 peptides (y-axes). D-F) COC plots. Each point represents the Pearson correlation coefficient, r, between a distinct gene expression or GR-peptide interaction assay with assays indicated on the x and y axes. G) The effects of all tested compounds on IL-1β-induced IL-6 production (y-axes) versus insulin-induced protein synthesis. […] IL-β-induced IL-6 production by A549 cells treated with the indicated compounds was compared by AlphaLISA. […] Mice in panel K were subjected to a lactate-tolerance test (LTT).
For inclusion in the statistical analyses, assays were required to show high reproducibility, with a Pearson correlation >0.8 between different experiments (FIG. 2, H; FIG. 9, A). […] We also analyzed the effects of the compounds on expression of Fkbp5, Pdk4, and Klf15 mRNAs in C2C12 myotubes, and MMTV-luciferase and androgen receptor (AR) driven-luciferase activity in 293T cells. Fkbp5 and Pdk4 are among the most highly expressed GR target genes, while Klf15 is a known GR target gene that inhibits protein synthesis and stimulates expression of genes that facilitate protein degradation (Shimizu et al., Cell Metabol. 13, 170-182, 2011). We also analyzed the effects of compounds on nuclear translocation of GR using a quantitative HTS approach (Htun et al., Proc. Natl. Acad. Sci. USA 93, 4845-4850, 1996). To visualize the variance of the compounds, we expressed the data as Z score for each assay, in units of standard deviation (FIG. 9, A). […] We used an AR-luciferase assay to test for androgenic activity (FIG. 9, B). From this we identified a handful compounds with AR activity >5% (FIG. 9, C).

[2] = tested on: mitochondrial activity, pAKT, protein synthesis, and bone; test: Compound profiling platform, overall profile (FIG. 15); assay type: cell-based; settings: 10 uM
Method: N=4-6 from two different experiments. […] D) Mitochondrial activity was measured in myoblasts using high content imaging with mitotracker dye after 24 treatment. New amino acid incorporation was measured with LICOR in cell western for puromycin (SunSet assay). […] N=3, mean+SEM. […] N=4, mean+SEM, 2-way ANOVA.
To avoid such effects on myogenesis, we switched myoblasts to differentiation media, and then on day 4, added 10 μM cytarabine, a chemotherapy agent that kills dividing cells, and then adding GCs on day 6 or 7 and completing assays in day 8 (FIG. 8).
Physiologically, the effects of GCs on protein balance and Glut4 translocation vary in vivo depending upon the stressor. For example, GCs mediate atrophy in response to fasting but not exercise. […] To assess protein degradation, we measured chymotrypsin-like proteasomal activity (FIG. 2, A). The activating phosphorylation of AKT at Thr308 (pAKT) was measured using a LI-COR In-Cell Western assay (FIG. 2, B and C). The rate-limiting step in insulin-mediated glucose uptake is the translocation of the glucose transporter, Glut4, to the surface membrane, which we also measured by In-Cell Western without permeabilizing the myotubes (FIG. 2, D). Surface Sensing of Translation (SUnSET) (Schmidt et al., Nat Methods 6, 275-277, 2009) assay was used to measure protein synthesis by In-Cell Western, following treatment of myotubes with a low dose of puromycin, which incorporates into translating proteins, but at a low enough level to provide a readout for global protein synthesis (FIG. 2, E). Lastly, we developed a high-content imaging assay in myoblasts stained with a MitoTracker dye, so that individual mitochondrial networks could be visualized with adequate resolution to quantitate area, segmentation, branching, and fluorescence intensity which is a measure of mitochondrial membrane potential (ψm).
Additional studies were performed to assess activities of the various compounds identified from the previous profiling.

modulator profile (agonist/antagonist) [1] | EC50 ([1]; read-out: EC50 in a luciferase reporter assay) | IC50 ([1]; read-out: IC50 for GR-driven luciferase activity) | EC50 ([1]; assay not given, read-out: EC50) | IC50 ([1]; read-out: IC50 for displacing 10 nM Dex, antagonist mode, 10 nM Dex) | IC50 ([1]; read-out: IC50 in the reporter assay) | Compound | overall profile in compound profiling (anabolic effects, agonism) [2]
partial agonist | 0.1 nM | 0.24 nM | – | – | – | C=CCOC1CC2(C)C(CCC2(O)C#CC)C2CCc3cc(C(=O)Nc4cccnc4C)ccc3C12 (centres unmarked) [SR11466] | anti-inflammatory but muscle sparing; also recorded: anabolic effects
– | – | – | 240 nM | – | – | CC#CC1(O)CCC2C3CCc4cc(C(=O)Nc5cnccc5C)ccc4C3C(O)CC21C (centres unmarked) [SR15421] | anabolic effects
full antagonist | – | – | – | 1 nM | 1.5 nM | CC#CC1(O)CCC2C3CCc4cc(C(=O)Nc5cccnc5C)ccc4C3C(OCc3ccccc3Cl)CC21C (centres unmarked) [SR16024] | more antagonistic SGRMs; also recorded: anabolic effects
– | – | – | – | – | – | CC#CC1(O)CCC2C3CCc4cc(C(=O)Nc5cccnc5C)ccc4C3C(OCc3ccc(Cl)cc3)CC21C (centres unmarked) [SR16025] | more antagonistic SGRMs; also recorded: anabolic effects
